Measurements reported in patent US9062057B2, “CCR5 antagonists for treating HIV” (Purdue Research Foundation, priority 2010, dated 2015).

Biological target: CCR5 chemokine receptor (Homo sapiens, UniProt P51681)
Test: Inhibition Data (IC50; no method described)
Conditions: assay not described, read-out: Activity (*) (IC50 class)

Chain of CCR5 chemokine receptor (P51681 whole entry): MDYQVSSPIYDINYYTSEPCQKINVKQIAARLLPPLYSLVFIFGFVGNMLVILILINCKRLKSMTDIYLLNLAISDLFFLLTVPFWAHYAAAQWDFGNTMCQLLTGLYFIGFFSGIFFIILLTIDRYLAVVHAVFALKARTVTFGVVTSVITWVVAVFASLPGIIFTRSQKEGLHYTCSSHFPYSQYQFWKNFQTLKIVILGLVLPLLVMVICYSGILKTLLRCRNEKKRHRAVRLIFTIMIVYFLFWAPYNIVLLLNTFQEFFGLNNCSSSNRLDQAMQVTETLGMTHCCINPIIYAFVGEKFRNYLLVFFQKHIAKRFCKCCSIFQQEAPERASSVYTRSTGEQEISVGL

Cc1ccc(S(=O)(=O)N[C@@H](CCN2C3CCC2CC(n2c(C)nnc2C2CO[C@H]4OCCC24)C3)c2ccccc2)cc1 (stereo partly shown) [Example 83]
IC50: < 1 µM
